Test results taken from patent EP4455667B1, “DEVICE FOR DETECTING MOLECULES” (Viscera Technologies Ltd, priority 2023, dated 2024).
Converted amounts (≈) assume the structure as drawn.

Key:
avidin = avidin (Gallus gallus, UniProt P02701); details: association constant from literature (Hermanson); cited from earlier work
[1] = tested on: anti-3-Nitrotyrosine antibody; assay: Lateral flow assay for NHPA in synthetic urine; format: binding
Experimental: The LFA was assembled using a nitrocellulose membrane attached to a plastic backing card (Figure 13). An anti-3-Nitrotyrosine antibody line was printed at 1mg/mL concentration, the line consisted of 20 lines, each with 25 µm width, using 0.1 µL antibody solution/cm/line. A streptavidin line was printed at 1mg/mL concentration and consisted of 10 lines, each with 50 µm width, using 0.1 µL streptavidin solution/cm/line. The membrane was sealed in a foil bag with desiccant silica gel sachets and stored in the fridge until used.
On the test day the wicking pad (5 x 17 mm) was attached to the membrane (2 mm overlap) and the plastic card was cut into strips (5 mm width). Glass fibre conjugate pads (5 x 7 mm) were soaked in AuNP-BSA-biotin-NHPA conjugate (0.5 OD) and dried in a desiccator for 2 hours. The conjugate pad was then attached to the membrane (2mm overlap). […]
Different concentrations of NHPA in synthetic urine (200 µL) were prepared in respective wells of a low-binding 96-well microplate. […] The images of the test strips (Figure 14) were analysed by ImageJ software. […] The grey level of the pixels in each test line was measured and subtracted from the background to calculate each line intensity and its dependence on the NHPA concentration (Figure 15b).

anti-caffeine antibody [2] = tested on: anti-caffeine antibody
Experimental: (§1) A 96-well ELISA plate was coated with anti-caffeine antibody (50 µL, 6 µg/mL, in PBS buffer, pH 7.4) by incubating the plate for 1 hour at RT. The plate was blocked with 2% (w/v) BSA in PBS with 0.05% (v/v) Tween-20, pH 7.4, for 2 hours at RT. BSA-biotin-caffeine conjugate (50 µL) at different concentrations were added to the plate and incubated for 1 hour at RT. HRP-labelled avidin (50 µL, 1:5000 dilution in blocking buffer) was added and the plate was incubated for 1 hour in the dark at RT. After thorough washing of the plate, the colour was developed by adding 3,3',5,5'-tetramethylbenzidine (TMB) liquid substrate system (50 µL). The reaction was stopped by the addition of 1 M H2SO4 (50 µL) and the absorbance at 450 nm was recorded.
(§2) Same general protocol as direct ELISA. Plate was coated with anti-caffeine antibody (50 µL, 6 µg/mL, in PBS buffer, pH 7.4) and blocked with 2% (w/v) BSA in PBS with 0.05% (v/v) Tween-20, pH 7.4. BSA-biotin-caffeine conjugate (25 µL, 40 mg/mL) was mixed with caffeine (25 µL) at different concentrations of the latter, added to the plate and incubated for 1 hour at RT. HRP-labelled avidin (50 µL, 1:5000 dilution) was added and the colour was developed by adding TMB liquid substrate system (50 µL). The reaction was stopped by the addition of 1 M H2SO4 (50 µL) and the absorbance at 450 nm was recorded.
(§3) The same ELISA format was used to test the competition of the BSA-biotin-caffeine conjugate and free caffeine for binding to the anti-caffeine antibody coated on the wells. A fixed amount of BSA-biotin-caffeine conjugate (20 µg/mL) was used and the concentration of free caffeine was varied.

anti-caffeine antibody [3] = assay: Competitive ELISA (free caffeine vs caffeine conjugate)
Experimental: as §1, §2, §3

anti-caffeine antibody [4] = assay: Modified competitive lateral flow assay for caffeine with two test lines; format: binding, mouse
Experimental: The LFA was assembled using a nitrocellulose membrane attached to a plastic backing card. Anti-caffeine antibody and avidin were immobilised at test lines 1 and 2, respectively, in the detection zone. […] The membrane was dried at RT for 2 hours. The wick was attached to the membrane (2 mm overlap) and the plastic card was cut into strips (5 mm x 60 mm). Glass fibre conjugate pads were soaked in 30% (w/v) sucrose in Milli-Q water and dried in an oven at 37°C. […] The conjugate pad was attached to the membrane and the prepared strips were kept in a desiccator until use.
Different concentrations of caffeine in 2% (w/v) BSA were prepared in respective wells of a low-binding 96-well microplate. The test strips were placed into each well vertically for 3 min, after which they were removed and left to dry. Images of the test strips were taken and analysed by ImageJ software. The grey level of the pixels in each test line was measured and subtracted from the background.
The effects of applying different concentrations of caffeine to the LFA were investigated to determine the working range and sensitivity that can be achieved for caffeine detection. The LFA test strips were prepared according to the design of the assay shown in Figure 3 and run using different concentrations of caffeine ranging from 1 ng/mL to 100 µg/mL. The optimised running buffer included glycerol as an agent to regulate wicking rate, and BSA and Tween-20 as blocking agents to reduce non-specific binding.
As well as visual inspection, the signal intensity of the test lines was analysed using ImageJ software. The signal intensities of test lines 1 and 2 at different caffeine concentrations were plotted in a semi-log graph as shown in Figure 11 (results were measured in triplicates). […] Table 1 - Semi-quantitative analysis of caffeine concentration based on the ratio between the signal intensities of test lines 1 and 2.

[5] = strips kept in a desiccator for seven days at room temperature

avidin, sequence (P02701 25-152, species assumed): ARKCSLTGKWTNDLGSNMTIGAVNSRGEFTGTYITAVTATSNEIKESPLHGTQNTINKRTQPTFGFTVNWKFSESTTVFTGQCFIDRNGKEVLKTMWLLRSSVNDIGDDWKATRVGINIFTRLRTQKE

O=C(O)CCCC[C@@H]1SC[C@@H]2NC(=O)N[C@@H]21 [biotin]
binding affinity for avidin (avidin): 1.3e+15 M⁻¹

O=C(O)Cc1ccc(O)c([N+](=O)[O-])c1 [NHPA, 3-nitro-4-hydroxyphenylacetic acid]
decrease of the antibody line's intensity ([1]; 250 ng/ml of NHPA in urine samples (synthetic urine)): over 90%
threshold of the assay for NHPA detection in urine ([1]; synthetic urine, also printed as 250 ± 80 ng/ml): 170 to 330 ng/mL

Cn1c(=O)c2c(ncn2C)n(C)c1=O [caffeine]
IC50 (anti-caffeine antibody [2]): 7 ng/mL (≈ 0.036 µM)
detection limit, determined by the concentration of caffeine that results in 10% inhibition (anti-caffeine antibody [3]; BSA-biotin-caffeine conjugate (20 µg/mL) as competitor): 0.03 ng/mL
IC50 value (anti-caffeine antibody [3]; fixed BSA-biotin-caffeine conjugate (20 µg/mL), free caffeine varied, absorbance at 450 nm, dose response fit): 1 ng/mL (≈ 0.00515 µM)
IC50 value of test line 1 (anti-caffeine antibody [4]; anti-caffeine antibody line, signal intensity by ImageJ, triplicates, fresh strips): 5 ng/mL
IC50 value of test line 2 (anti-caffeine antibody [4]; avidin line, signal intensity by ImageJ, triplicates, fresh strips): 8 ng/mL
IC50 value of test line 1 (anti-caffeine antibody [4]; [5]): 3 ng/mL
IC50 value of test line 2 (anti-caffeine antibody [4]; [5]): 11 ng/mL
visual detection limit (anti-caffeine antibody [4]; test line 1 only (no colour developed), no calibration): 10000 ng/mL
visual detection limit (anti-caffeine antibody [4]; test line 2, strips stored seven days at room temperature): 10 ng/mL
visual detection limit (anti-caffeine antibody [4]; with the second test line (test line 2), fresh strips): 10 ng/mL

O=C(O)c1ccccc1N=Nc1ccc(O)cc1 [HABA, 4'-hydroxyazobenzene-2-carboxylic acid]
binding affinity for avidin (avidin): 6e+06 M⁻¹
